ChEMBL document CHEMBL2069252, “Pyrazole diaminopyrimidines as dual inhibitors of KDR and Aurora B kinases” (Bioorg Med Chem Lett, 2012)
Values after ≈ are worked out from the molar mass of the structure shown. Active and inactive are the calls of the source. No cut-off for these calls is given here.

Tested on: not listed separately
Test: Aqueous solubility of the compound at pH 7.4 after 24 hrs by chemiluminescent nitrogen detection
Assay type: physicochemical
Settings: not given

Row | SMILES | solubility at 24 h [µM]
1 | NC(=O)[C@@H]1[C@H](Nc2nc(Nc3cnn(C[C@H]4CCCN4)c3)ncc2Cl)[C@H]2C=C[C@@H]1C2 | 86 (≈ 36.9 µg/mL)
2 | Cn1cc(Nc2ncc(Cl)c(N[C@H]3[C@@H](C(N)=O)[C@@H]4C=C[C@H]3C4)n2)cn1 | 78 (≈ 28.1 µg/mL)
3 | NC(=O)[C@@H]1[C@H](Nc2nc(Nc3cnn(Cc4ccccc4)c3)ncc2Cl)[C@H]2C=C[C@@H]1C2 | 4 (≈ 1.74 µg/mL)
4 | NC(=O)Cn1cc(Nc2ncc(Cl)c(N[C@H]3[C@@H](C(N)=O)[C@@H]4C=C[C@H]3C4)n2)cn1 | 68 (≈ 27.4 µg/mL)

Next, values leading:

Row | solubility at 24 h [µM] | SMILES
5 | 70 (≈ 27.3 µg/mL) | NC(=O)[C@@H]1[C@H](Nc2nc(Nc3cnn(CCO)c3)ncc2Cl)[C@H]2C=C[C@@H]1C2
6 | 72 (≈ 30 µg/mL) | CNC(=O)Cn1cc(Nc2ncc(Cl)c(N[C@H]3[C@@H](C(N)=O)[C@@H]4C=C[C@H]3C4)n2)cn1
7 | 70 (≈ 26.2 µg/mL) | CCn1cc(Nc2ncc(Cl)c(N[C@H]3[C@@H](C(N)=O)[C@@H]4C=C[C@H]3C4)n2)cn1
8 | 70 (≈ 30 µg/mL) | NC(=O)[C@@H]1[C@H](Nc2nc(Nc3cnn([C@@H]4CCCNC4)c3)ncc2Cl)[C@H]2C=C[C@@H]1C2

Tested on: Mus musculus
Test: Toxicity in mouse xenografted with human DOHH2 cells assessed as weight loss at 10 mg/kg, ip administered Q7d for 3 weeks
Settings: in vivo, 504 h

Row | SMILES | Activity
9 | Cn1cc(Nc2ncc(Cl)c(N[C@H]3[C@@H](C(N)=O)[C@@H]4C=C[C@H]3C4)n2)cn1 | Toxic

Tested on: not listed separately
Test: Metabolic stability of the compound in mouse liver microsomes assessed as compound remaining after 30 mins
Assay type: ADME, Microsome
Settings: read-out: Stability

Row | SMILES | remaining at 0.5 h [%]
10 | NC(=O)[C@@H]1[C@H](Nc2nc(Nc3cnn(C[C@H]4CCCN4)c3)ncc2Cl)[C@H]2C=C[C@@H]1C2 | 48
11 | Cn1cc(Nc2ncc(Cl)c(N[C@H]3[C@@H](C(N)=O)[C@@H]4C=C[C@H]3C4)n2)cn1 | 44
12 | NC(=O)[C@@H]1[C@H](Nc2nc(Nc3cnn(Cc4ccccc4)c3)ncc2Cl)[C@H]2C=C[C@@H]1C2 | < 1
13 | NC(=O)Cn1cc(Nc2ncc(Cl)c(N[C@H]3[C@@H](C(N)=O)[C@@H]4C=C[C@H]3C4)n2)cn1 | 68

Results, then the compound that gave them:

Row | remaining at 0.5 h [%] | SMILES
14 | 45 | NC(=O)[C@@H]1[C@H](Nc2nc(Nc3cnn(CCO)c3)ncc2Cl)[C@H]2C=C[C@@H]1C2
15 | 88 | CNC(=O)Cn1cc(Nc2ncc(Cl)c(N[C@H]3[C@@H](C(N)=O)[C@@H]4C=C[C@H]3C4)n2)cn1
16 | 13 | CCn1cc(Nc2ncc(Cl)c(N[C@H]3[C@@H](C(N)=O)[C@@H]4C=C[C@H]3C4)n2)cn1
17 | 48 | NC(=O)[C@@H]1[C@H](Nc2nc(Nc3cnn([C@@H]4CCCNC4)c3)ncc2Cl)[C@H]2C=C[C@@H]1C2

Tested on: not listed separately
Test: AUC in CD1(ICR) mouse at 10 mg/kg, ip
Assay type: ADME, organism-based
Parameters: dose 10 mg/kg, route intraperitoneal
Settings: plasma

Row | SMILES | AUC [µM·h]
18 | NC(=O)[C@@H]1[C@H](Nc2nc(Nc3cnn(C[C@H]4CCCN4)c3)ncc2Cl)[C@H]2C=C[C@@H]1C2 | 12.7
19 | Cn1cc(Nc2ncc(Cl)c(N[C@H]3[C@@H](C(N)=O)[C@@H]4C=C[C@H]3C4)n2)cn1 | 11.1
20 | NC(=O)Cn1cc(Nc2ncc(Cl)c(N[C@H]3[C@@H](C(N)=O)[C@@H]4C=C[C@H]3C4)n2)cn1 | 15

Continued, values first:

Row | AUC [µM·h] | SMILES
21 | 5 | NC(=O)[C@@H]1[C@H](Nc2nc(Nc3cnn(CCO)c3)ncc2Cl)[C@H]2C=C[C@@H]1C2
22 | 6.68 | CNC(=O)Cn1cc(Nc2ncc(Cl)c(N[C@H]3[C@@H](C(N)=O)[C@@H]4C=C[C@H]3C4)n2)cn1
23 | 2.54 | CCn1cc(Nc2ncc(Cl)c(N[C@H]3[C@@H](C(N)=O)[C@@H]4C=C[C@H]3C4)n2)cn1
24 | 15.7 | NC(=O)[C@@H]1[C@H](Nc2nc(Nc3cnn([C@@H]4CCCNC4)c3)ncc2Cl)[C@H]2C=C[C@@H]1C2

Biological target: T1, Vascular endothelial growth factor receptor 2 (Homo sapiens, UniProt P35968)
Test: Inhibition of KDR by HTRF analysis in presence of 1 mM ATP
Settings: not given

T1 sequence (P35968 whole entry): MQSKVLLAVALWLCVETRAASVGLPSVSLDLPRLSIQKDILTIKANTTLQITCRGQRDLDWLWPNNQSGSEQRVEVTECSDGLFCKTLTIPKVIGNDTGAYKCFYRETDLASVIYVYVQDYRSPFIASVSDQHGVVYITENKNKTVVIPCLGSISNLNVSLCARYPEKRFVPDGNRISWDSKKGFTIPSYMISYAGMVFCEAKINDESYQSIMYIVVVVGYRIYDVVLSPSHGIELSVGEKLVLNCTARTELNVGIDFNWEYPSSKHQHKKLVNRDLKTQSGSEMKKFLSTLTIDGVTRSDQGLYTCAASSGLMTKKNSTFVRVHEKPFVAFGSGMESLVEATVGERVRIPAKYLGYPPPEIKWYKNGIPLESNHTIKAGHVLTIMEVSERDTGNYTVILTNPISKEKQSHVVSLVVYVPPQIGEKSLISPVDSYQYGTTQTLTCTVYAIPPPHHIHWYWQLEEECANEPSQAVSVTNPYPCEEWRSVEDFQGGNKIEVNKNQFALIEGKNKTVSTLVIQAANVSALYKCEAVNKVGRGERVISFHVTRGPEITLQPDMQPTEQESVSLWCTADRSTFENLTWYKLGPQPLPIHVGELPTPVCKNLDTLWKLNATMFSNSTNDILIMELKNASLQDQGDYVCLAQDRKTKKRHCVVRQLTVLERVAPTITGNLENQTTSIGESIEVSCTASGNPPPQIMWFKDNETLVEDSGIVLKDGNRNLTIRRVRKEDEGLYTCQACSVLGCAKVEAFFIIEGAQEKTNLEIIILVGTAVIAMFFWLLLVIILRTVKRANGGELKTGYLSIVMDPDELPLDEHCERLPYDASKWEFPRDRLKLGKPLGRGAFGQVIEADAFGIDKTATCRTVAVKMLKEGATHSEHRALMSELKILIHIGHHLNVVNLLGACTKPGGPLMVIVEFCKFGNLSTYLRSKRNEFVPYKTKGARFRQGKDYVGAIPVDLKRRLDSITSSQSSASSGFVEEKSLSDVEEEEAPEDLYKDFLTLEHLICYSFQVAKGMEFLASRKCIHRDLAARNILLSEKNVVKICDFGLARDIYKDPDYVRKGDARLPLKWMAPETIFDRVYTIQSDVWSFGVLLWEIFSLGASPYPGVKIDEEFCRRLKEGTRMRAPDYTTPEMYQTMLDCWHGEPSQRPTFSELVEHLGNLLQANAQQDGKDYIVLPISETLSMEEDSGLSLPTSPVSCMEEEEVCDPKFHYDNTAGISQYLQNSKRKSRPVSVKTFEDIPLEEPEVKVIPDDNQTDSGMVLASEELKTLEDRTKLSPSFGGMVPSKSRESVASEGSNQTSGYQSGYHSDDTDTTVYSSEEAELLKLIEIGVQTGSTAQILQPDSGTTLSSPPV

Row | SMILES | IC50 [nM]
25 | NC(=O)[C@@H]1[C@H](Nc2nc(Nc3cnn(C[C@H]4CCCN4)c3)ncc2Cl)[C@H]2C=C[C@@H]1C2 | 15
26 | Cn1cc(Nc2ncc(Cl)c(N[C@H]3[C@@H](C(N)=O)[C@@H]4C=C[C@H]3C4)n2)cn1 | 14
27 | NC(=O)[C@@H]1[C@H](Nc2nc(Nc3cnn(Cc4ccccc4)c3)ncc2Cl)[C@H]2C=C[C@@H]1C2 | 7
28 | NC(=O)Cn1cc(Nc2ncc(Cl)c(N[C@H]3[C@@H](C(N)=O)[C@@H]4C=C[C@H]3C4)n2)cn1 | 18

Stronger by IC50, values ahead:

Row | IC50 [nM] | SMILES
29 | 6 | NC(=O)[C@@H]1[C@H](Nc2nc(Nc3cnn(CCO)c3)ncc2Cl)[C@H]2C=C[C@@H]1C2
30 | 6 | CNC(=O)Cn1cc(Nc2ncc(Cl)c(N[C@H]3[C@@H](C(N)=O)[C@@H]4C=C[C@H]3C4)n2)cn1
31 | 3 | CCn1cc(Nc2ncc(Cl)c(N[C@H]3[C@@H](C(N)=O)[C@@H]4C=C[C@H]3C4)n2)cn1
32 | 2 | NC(=O)[C@@H]1[C@H](Nc2nc(Nc3cnn([C@@H]4CCCNC4)c3)ncc2Cl)[C@H]2C=C[C@@H]1C2

Biological target: T1, Vascular endothelial growth factor receptor 2
Test: Inhibition of human KDR autophosphorylation expressed in mouse NIH/3T3 cells
Assay type: cell-based, NIH3T3
Settings: not given

Row | SMILES | IC50 [nM]
33 | NC(=O)[C@@H]1[C@H](Nc2nc(Nc3cnn(C[C@H]4CCCN4)c3)ncc2Cl)[C@H]2C=C[C@@H]1C2 | 49
34 | Cn1cc(Nc2ncc(Cl)c(N[C@H]3[C@@H](C(N)=O)[C@@H]4C=C[C@H]3C4)n2)cn1 | 20
35 | NC(=O)[C@@H]1[C@H](Nc2nc(Nc3cnn(Cc4ccccc4)c3)ncc2Cl)[C@H]2C=C[C@@H]1C2 | 42
36 | NC(=O)Cn1cc(Nc2ncc(Cl)c(N[C@H]3[C@@H](C(N)=O)[C@@H]4C=C[C@H]3C4)n2)cn1 | 167

Now from value to compound:

Row | IC50 [nM] | SMILES
37 | 48 | NC(=O)[C@@H]1[C@H](Nc2nc(Nc3cnn(CCO)c3)ncc2Cl)[C@H]2C=C[C@@H]1C2
38 | 89 | CNC(=O)Cn1cc(Nc2ncc(Cl)c(N[C@H]3[C@@H](C(N)=O)[C@@H]4C=C[C@H]3C4)n2)cn1
39 | 8 | CCn1cc(Nc2ncc(Cl)c(N[C@H]3[C@@H](C(N)=O)[C@@H]4C=C[C@H]3C4)n2)cn1
40 | 44 | NC(=O)[C@@H]1[C@H](Nc2nc(Nc3cnn([C@@H]4CCCNC4)c3)ncc2Cl)[C@H]2C=C[C@@H]1C2

Tested on: Mus musculus
Test: Toxicity in mouse xenografted with human DOHH2 cells assessed as mortality at 10 mg/kg, ip administered Q7d for 3 weeks
Settings: in vivo, 504 h

Row | SMILES | Activity
41 | Cn1cc(Nc2ncc(Cl)c(N[C@H]3[C@@H](C(N)=O)[C@@H]4C=C[C@H]3C4)n2)cn1 | Toxic

Tested on: DOHH-2
Settings: Homo sapiens
Description: Antitumor activity against human DOHH2 cells xenografted in mouse tumor model assessed as tumor growth inhibition at 10 mg/kg, ip administered Q7d for 3 weeks

Row | SMILES | TGI
42 | Cn1cc(Nc2ncc(Cl)c(N[C@H]3[C@@H](C(N)=O)[C@@H]4C=C[C@H]3C4)n2)cn1 | Active

Biological target: Aurora kinase B (Homo sapiens, UniProt Q96GD4)
Test: Inhibition of Aurora B kinase by HTRF analysis in presence of 1 mM ATP
Settings: not given

Chain of Aurora kinase B (Q96GD4 whole entry): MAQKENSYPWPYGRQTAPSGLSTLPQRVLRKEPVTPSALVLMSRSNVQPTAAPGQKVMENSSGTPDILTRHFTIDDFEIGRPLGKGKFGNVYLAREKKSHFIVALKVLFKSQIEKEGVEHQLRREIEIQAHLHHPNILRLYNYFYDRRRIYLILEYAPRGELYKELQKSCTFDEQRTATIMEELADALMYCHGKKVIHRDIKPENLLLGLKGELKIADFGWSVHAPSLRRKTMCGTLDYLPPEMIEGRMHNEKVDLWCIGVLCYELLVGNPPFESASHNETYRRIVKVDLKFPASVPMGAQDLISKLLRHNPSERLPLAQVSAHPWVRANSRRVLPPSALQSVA

Row | SMILES | IC50 [nM]
43 | NC(=O)[C@@H]1[C@H](Nc2nc(Nc3cnn(C[C@H]4CCCN4)c3)ncc2Cl)[C@H]2C=C[C@@H]1C2 | 15
44 | Cn1cc(Nc2ncc(Cl)c(N[C@H]3[C@@H](C(N)=O)[C@@H]4C=C[C@H]3C4)n2)cn1 | 29
45 | NC(=O)[C@@H]1[C@H](Nc2nc(Nc3cnn(Cc4ccccc4)c3)ncc2Cl)[C@H]2C=C[C@@H]1C2 | 12
46 | NC(=O)Cn1cc(Nc2ncc(Cl)c(N[C@H]3[C@@H](C(N)=O)[C@@H]4C=C[C@H]3C4)n2)cn1 | 25

More lines, now with the values ahead:

Row | IC50 [nM] | SMILES
47 | 19 | NC(=O)[C@@H]1[C@H](Nc2nc(Nc3cnn(CCO)c3)ncc2Cl)[C@H]2C=C[C@@H]1C2
48 | 26 | CNC(=O)Cn1cc(Nc2ncc(Cl)c(N[C@H]3[C@@H](C(N)=O)[C@@H]4C=C[C@H]3C4)n2)cn1
49 | 8 | CCn1cc(Nc2ncc(Cl)c(N[C@H]3[C@@H](C(N)=O)[C@@H]4C=C[C@H]3C4)n2)cn1
50 | 12 | NC(=O)[C@@H]1[C@H](Nc2nc(Nc3cnn([C@@H]4CCCNC4)c3)ncc2Cl)[C@H]2C=C[C@@H]1C2

Tested on: NCI-H1299
Test: Cell cycle arrest in human NCI-H1299 cells assessed as induction of polyploidy after 48 hrs by Hoechst staining-based fluorescence microscopic analysis
Assay type: functional
Settings: NCI-H1299, 48 h

Row | SMILES | EC15 [nM]
51 | NC(=O)[C@@H]1[C@H](Nc2nc(Nc3cnn(CCO)c3)ncc2Cl)[C@H]2C=C[C@@H]1C2 | < 1
52 | NC(=O)[C@@H]1[C@H](Nc2nc(Nc3cnn(C[C@H]4CCCN4)c3)ncc2Cl)[C@H]2C=C[C@@H]1C2 | 11
53 | CNC(=O)Cn1cc(Nc2ncc(Cl)c(N[C@H]3[C@@H](C(N)=O)[C@@H]4C=C[C@H]3C4)n2)cn1 | 11
54 | NC(=O)[C@@H]1[C@H](Nc2nc(Nc3cnn([C@@H]4CCCNC4)c3)ncc2Cl)[C@H]2C=C[C@@H]1C2 | 1
55 | Cn1cc(Nc2ncc(Cl)c(N[C@H]3[C@@H](C(N)=O)[C@@H]4C=C[C@H]3C4)n2)cn1 | < 3
56 | CCn1cc(Nc2ncc(Cl)c(N[C@H]3[C@@H](C(N)=O)[C@@H]4C=C[C@H]3C4)n2)cn1 | < 1
57 | NC(=O)[C@@H]1[C@H](Nc2nc(Nc3cnn(Cc4ccccc4)c3)ncc2Cl)[C@H]2C=C[C@@H]1C2 | < 1
58 | NC(=O)Cn1cc(Nc2ncc(Cl)c(N[C@H]3[C@@H](C(N)=O)[C@@H]4C=C[C@H]3C4)n2)cn1 | 19
